Results as given in patent US20080038728A1, “Quadruple Transformed Cell Line Useful for the Identification of Transport Inhibitors” (priority 2004, published 2008).
Where two headings read alike, the source gives them in different places.

Tests used:
OATP2B1 [1] = target: T1, OATP2B1 (Homo sapiens, UniProt O94956); conditions: cRNA-injected Xenopus laevis oocytes; cited from earlier work
T1 sequence (O94956 1-709): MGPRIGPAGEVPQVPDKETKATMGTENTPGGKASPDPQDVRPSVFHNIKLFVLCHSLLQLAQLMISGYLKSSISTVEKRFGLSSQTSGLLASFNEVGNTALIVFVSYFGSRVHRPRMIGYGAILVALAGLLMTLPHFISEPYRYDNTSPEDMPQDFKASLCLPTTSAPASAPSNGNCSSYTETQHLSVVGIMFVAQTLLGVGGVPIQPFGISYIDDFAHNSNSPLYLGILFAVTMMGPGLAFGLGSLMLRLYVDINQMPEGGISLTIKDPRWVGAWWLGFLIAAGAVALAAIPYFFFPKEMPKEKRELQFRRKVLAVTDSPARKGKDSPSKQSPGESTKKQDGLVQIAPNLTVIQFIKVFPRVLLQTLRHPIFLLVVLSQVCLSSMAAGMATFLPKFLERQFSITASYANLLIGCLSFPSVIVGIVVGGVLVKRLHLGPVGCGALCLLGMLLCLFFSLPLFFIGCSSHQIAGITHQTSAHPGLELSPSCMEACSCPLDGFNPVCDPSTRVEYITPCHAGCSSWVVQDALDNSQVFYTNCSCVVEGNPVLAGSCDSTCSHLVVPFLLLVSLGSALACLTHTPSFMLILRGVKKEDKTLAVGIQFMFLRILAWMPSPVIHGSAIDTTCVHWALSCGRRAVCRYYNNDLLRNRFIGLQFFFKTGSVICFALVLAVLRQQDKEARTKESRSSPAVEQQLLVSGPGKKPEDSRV

OATP1B1 [2] = target: T2, OATP1B1 (Homo sapiens, UniProt Q9Y6L6); conditions: cRNA-injected Xenopus laevis oocytes; cited from earlier work
T2 sequence (Q9Y6L6 1-691): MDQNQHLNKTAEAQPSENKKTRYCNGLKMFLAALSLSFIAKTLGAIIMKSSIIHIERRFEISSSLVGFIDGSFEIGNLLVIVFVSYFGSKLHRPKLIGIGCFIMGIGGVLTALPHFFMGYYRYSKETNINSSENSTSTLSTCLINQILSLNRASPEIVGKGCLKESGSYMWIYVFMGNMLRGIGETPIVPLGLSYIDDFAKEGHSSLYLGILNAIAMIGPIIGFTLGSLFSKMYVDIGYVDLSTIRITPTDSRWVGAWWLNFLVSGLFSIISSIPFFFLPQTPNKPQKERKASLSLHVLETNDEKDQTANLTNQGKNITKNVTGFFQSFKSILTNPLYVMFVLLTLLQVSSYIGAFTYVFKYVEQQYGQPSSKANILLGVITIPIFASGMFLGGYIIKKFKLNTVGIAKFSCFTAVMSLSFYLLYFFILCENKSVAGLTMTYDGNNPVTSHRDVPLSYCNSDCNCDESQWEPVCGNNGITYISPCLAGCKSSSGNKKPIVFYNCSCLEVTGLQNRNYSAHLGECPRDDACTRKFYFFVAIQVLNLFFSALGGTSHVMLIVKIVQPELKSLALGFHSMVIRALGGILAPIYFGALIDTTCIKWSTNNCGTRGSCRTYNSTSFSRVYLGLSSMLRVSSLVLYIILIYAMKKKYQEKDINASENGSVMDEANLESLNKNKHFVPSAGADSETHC

OATP2B1 [3] = target: T1, OATP2B1; experiment: Uptake (intracellular accumulation) kinetics in ABCC2/OATP2B1 double-transfected MDCKII cells; format: in vitro ADME; design: expressed in transfected cells; host or cells: MDCKII (canine kidney) ABCC2 single-transfectant, further transfected with pcDNA3.1/Hygro(-)-OATP2B1; conditions: cell line ABCC2-OATP2B1; intracellular accumulation of 3H-labeled substrate
Method: (a) MDCKII cells were grown on ThinCerts (24-mm diameter, pore size 0.4 μm, pore density 1×10^8 per cm^2) and induced with butyrate as mentioned above. […] The ^3H-labeled substrate was dissolved in transport buffer and added either to the apical or to the basolateral compartment at the concentration indicated. After incubation at 37° C., the radioactivity in the opposite compartment was measured by sampling aliquots from the apical or basolateral compartment. Cells were washed 2 times with ice-cold transport buffer containing 0.5% bovine serum albumin and 3 times in ice-cold transport buffer. Intracellular accumulation of radioactivity was calculated by lyzing the cells with 0.2% sodium dodecyl sulfate (SDS) and measuring the radioactivity in the lysate.

ABCC2 = ABCC2 (Homo sapiens, UniProt Q92887); design: expressed in transfected cells; host or cells: MDCKII-ABCC2 single-transfected cells (membrane vesicles); conditions: BSP: Cui et al., 2001; CCK-8: Letschert et al., 2005; cited from earlier work
ABCC2, sequence (Q92887 whole entry): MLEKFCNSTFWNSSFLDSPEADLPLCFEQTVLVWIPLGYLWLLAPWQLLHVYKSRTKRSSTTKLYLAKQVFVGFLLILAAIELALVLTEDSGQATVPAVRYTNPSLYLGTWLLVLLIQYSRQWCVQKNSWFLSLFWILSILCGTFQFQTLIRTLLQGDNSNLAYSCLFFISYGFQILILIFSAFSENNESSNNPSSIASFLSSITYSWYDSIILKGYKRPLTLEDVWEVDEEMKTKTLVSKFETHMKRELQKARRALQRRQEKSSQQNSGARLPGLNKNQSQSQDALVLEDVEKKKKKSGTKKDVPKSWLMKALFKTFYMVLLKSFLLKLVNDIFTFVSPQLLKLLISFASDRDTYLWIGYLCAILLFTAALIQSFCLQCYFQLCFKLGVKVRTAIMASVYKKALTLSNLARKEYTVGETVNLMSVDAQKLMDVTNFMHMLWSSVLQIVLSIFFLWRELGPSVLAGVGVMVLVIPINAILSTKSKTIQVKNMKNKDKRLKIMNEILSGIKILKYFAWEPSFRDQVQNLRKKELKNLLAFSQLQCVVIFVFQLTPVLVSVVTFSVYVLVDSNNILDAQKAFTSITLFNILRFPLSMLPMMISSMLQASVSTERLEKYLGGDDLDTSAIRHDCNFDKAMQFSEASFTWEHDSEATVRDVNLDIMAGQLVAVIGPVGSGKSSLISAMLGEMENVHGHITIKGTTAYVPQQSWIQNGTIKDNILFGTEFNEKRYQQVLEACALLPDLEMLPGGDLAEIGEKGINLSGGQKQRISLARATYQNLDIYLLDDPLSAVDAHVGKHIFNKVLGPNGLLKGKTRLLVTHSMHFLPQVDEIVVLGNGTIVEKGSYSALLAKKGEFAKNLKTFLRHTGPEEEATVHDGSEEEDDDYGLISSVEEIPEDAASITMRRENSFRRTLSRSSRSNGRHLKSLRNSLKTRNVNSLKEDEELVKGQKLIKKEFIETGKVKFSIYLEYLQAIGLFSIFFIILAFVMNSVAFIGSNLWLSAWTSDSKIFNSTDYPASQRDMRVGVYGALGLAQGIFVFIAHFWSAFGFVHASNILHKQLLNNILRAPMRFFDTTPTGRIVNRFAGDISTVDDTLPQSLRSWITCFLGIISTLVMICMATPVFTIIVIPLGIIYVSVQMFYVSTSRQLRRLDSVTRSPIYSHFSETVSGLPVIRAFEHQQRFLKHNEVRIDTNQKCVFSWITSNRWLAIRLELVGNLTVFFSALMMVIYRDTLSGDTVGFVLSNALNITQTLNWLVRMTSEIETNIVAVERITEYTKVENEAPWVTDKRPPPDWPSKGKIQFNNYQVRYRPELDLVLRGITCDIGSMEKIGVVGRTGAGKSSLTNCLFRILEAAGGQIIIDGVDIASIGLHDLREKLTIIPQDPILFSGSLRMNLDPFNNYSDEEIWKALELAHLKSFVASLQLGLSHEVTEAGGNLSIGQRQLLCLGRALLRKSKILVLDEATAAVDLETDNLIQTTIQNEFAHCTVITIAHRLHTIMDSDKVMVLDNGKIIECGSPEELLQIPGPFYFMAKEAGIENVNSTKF

OATP1B1 [4] = target: T2, OATP1B1; conditions: BSP uptake, background section; cited from earlier work

**Q.** Which results are given for `O=C1OC(c2ccc(O)c(S(=O)(=O)O)c2)(c2ccc(O)c(S(=O)(=O)O)c2)c2c(Br)c(Br)c(Br)c(Br)c21` [Bromosulfophthalein]?
**A.** Km (OATP2B1 [1]): 0.7 µM; Km (OATP1B1 [2]): 0.3 µM; Vmax (OATP2B1 [3]): 52.8 ± 8.6 pmol · mg protein^−1 · min^−1; Km (ABCC2): 12 µM; Km (OATP1B1 [4]): 0.14 µM
